Where “and” joins values, the source holds several entries; their conditions need not be identical. Equal entries are not always repeated. Inconclusive results and toxic doses are left out.
System: P388 leukemia ip, CD2F1 mice, survival T/C
Test: NCI In Vivo Anticancer Drug Screen. Data for tumor model P388 Leukemia (intraperitoneal) in CD2F1 (CDF1) mice
Details: endpoint: median survival time, higher = longer survival
Method in brief: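 Mice carrying the transplanted tumor received test compound or vehicle. Survival was recorded in each group, and the value is the treated-group measurement divided by that of the vehicle-treated control group.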

[1] = dose: 100.0 mg/kg/injection, schedule: Q04DX002 (ip), vehicle: saline with Tween-80
[2] = dose: 200.0 mg/kg/injection, schedule: Q04DX002 (ip), vehicle: saline with Tween-80
[3] = dose: 400.0 mg/kg/injection, schedule: Q04DX002 (ip), vehicle: saline with Tween-80
[4] = dose: 6.25 mg/kg/injection, schedule: Q01DX005 (ip), vehicle: saline with Tween-80
[5] = dose: 12.5 mg/kg/injection, schedule: Q01DX005 (ip), vehicle: saline with Tween-80
[6] = dose: 50.0 mg/kg/injection, schedule: Q01DX009 (ip), vehicle: saline with Tween-80
[7] = dose: 100.0 mg/kg/injection, schedule: Q01DX009 (ip), vehicle: saline with Tween-80
[8] = dose: 200.0 mg/kg/injection, schedule: Q01DX009 (ip), vehicle: saline with Tween-80
[9] = dose: 25.0 mg/kg/injection, schedule: Q01DX009 (ip), vehicle: saline with Tween-80
[10] = dose: 50.0 mg/kg/injection, schedule: Q01DX005 (ip), vehicle: Klucel (hydroxypropylcellulose) (HPC)
[11] = dose: 100.0 mg/kg/injection, schedule: Q01DX005 (ip), vehicle: Klucel (hydroxypropylcellulose) (HPC)
[12] = dose: 60.0 mg/kg/injection, schedule: Q01DX005 (ip), vehicle: saline with Tween-80

In the case of `CCOC(=O)C1C(=O)N2C(=O)C(NC(C)=O)=C(O)C2C1c1ccccc1` (stereo not given), the T/C [1] is reported as 100 % of control, the T/C [2] is reported as 99 % of control and the T/C [3] is reported as 100 % of control.

With `COCCCNCC(=O)Nc1ccc(S(=O)(=O)c2ccc(NC(=O)CNCCCOC)cc2)cc1` the T/C (dose: 50.0 mg/kg/injection, schedule: Q01DX005 (ip), vehicle: acid diluted with saline) was 107 % of control, the T/C (dose: 100.0 mg/kg/injection, schedule: Q01DX005 (ip), vehicle: acid diluted with saline) was 104 % of control and the T/C (dose: 200.0 mg/kg/injection, schedule: Q01DX005 (ip), vehicle: acid diluted with saline) was 112 % of control.

For `CC(C)=CCC/C(C)=C/CC/C(C)=C/CC/C(C)=C/C=C/C=C(\C)CC/C=C(\C)CC/C=C(\C)CCC=C(C)C`, the T/C (dose: 17.5 mg/kg/injection, schedule: Q01DX005 (ip), vehicle: saline) was 101 % of control, the T/C (dose: 35.0 mg/kg/injection, schedule: Q01DX005 (ip), vehicle: saline) was 100 % of control and the T/C (dose: 70.0 mg/kg/injection, schedule: Q01DX005 (ip), vehicle: saline) was 95 % of control. For the same compound, the T/C (dose: 140.0 mg/kg/injection, schedule: Q01DX005 (ip), vehicle: saline) was 104 % of control.

`O=C(O)c1ccc(N2C(=O)C3C4CCC(O4)C3C2=O)cc1` (stereo not given) was tested, and the T/C [4] was 101 % of control and the T/C [5] was 101 % of control.

In the case of `Brc1ccc(Nc2ccccn2)cc1`, the T/C (dose: 12.5 mg/kg/injection, schedule: Q01DX009 (ip), vehicle: other) is reported as 108 % of control, the T/C (dose: 25.0 mg/kg/injection, schedule: Q01DX009 (ip), vehicle: other) is reported as 97 % of control and the T/C (dose: 50.0 mg/kg/injection, schedule: Q01DX009 (ip), vehicle: other) is reported as 105 % of control. The T/C (dose: 100.0 mg/kg/injection, schedule: Q01DX009 (ip), vehicle: other) was 105 % of control and the T/C (dose: 200.0 mg/kg/injection, schedule: Q01DX009 (ip), vehicle: other) was 106 % of control.

With `CC1SC(C)C1O` (stereo not given) the T/C (dose: 60.0 mg/kg/injection, schedule: Q01DX005 (ip), vehicle: saline) was 104 % of control, the T/C (dose: 120.0 mg/kg/injection, schedule: Q01DX005 (ip), vehicle: saline) was 108 % of control and the T/C (dose: 240.0 mg/kg/injection, schedule: Q01DX005 (ip), vehicle: saline) was 93 % of control.

`Cc1ccc(NC(=O)Nc2ccccc2C(N)=O)cc1` was tested, and the T/C (dose: 100.0 mg/kg/injection, schedule: Q04DX003 (ip), vehicle: saline with Tween-80) was 95 % of control, the T/C (dose: 200.0 mg/kg/injection, schedule: Q04DX003 (ip), vehicle: saline with Tween-80) was 95 % of control and the T/C (dose: 400.0 mg/kg/injection, schedule: Q04DX003 (ip), vehicle: saline with Tween-80) was 90 % of control.

With `CCCCCCCCCCCCCCCCS(=O)(=O)CCO` the T/C [6] was 95 % of control, the T/C [7] was 90 % of control and the T/C [8] was 86 % of control.

With `COC(=O)c1ccccc1-c1ccccc1C=O` the T/C [1] was 97 % of control, the T/C [2] was 98 % of control and the T/C [3] was 100 % of control.

For `CCCN(CCC)C(=O)[S-].CCCN(CCC)C(=O)[S-].[Ni+2]`, the T/C (dose: 12.5 mg/kg/injection, schedule: Q01DX009 (ip), vehicle: saline with Tween-80) was 90 % of control and the T/C [9] was 109 % of control.

In the case of `CC(C)C(=O)NCc1ccccc1Sc1ccccc1CNC(=O)C(C)C`, the T/C [1] is reported as 90 % of control, the T/C [2] is reported as 90 % of control and the T/C [3] is reported as 91 % of control.

For `c1cc[n+](CCC[n+]2ccccc2)cc1`, the T/C (dose: 50.0 mg/kg/injection, schedule: Q01DX009 (ip), vehicle: saline) was 98 % of control, the T/C (dose: 100.0 mg/kg/injection, schedule: Q01DX009 (ip), vehicle: saline) was 97 % of control and the T/C (dose: 200.0 mg/kg/injection, schedule: Q01DX009 (ip), vehicle: saline) was 100 % of control.

In the case of `CSC(=S)N/N=C(\C)c1ccc[nH]1`, the T/C [10] is reported as 99 % of control and the T/C [11] is reported as 97 % of control.

In the case of `O=C1OC(=O)C2CC=CCC12` (stereo not given), the T/C [6] is reported as 95 % of control, the T/C [7] is reported as 93 % of control and the T/C [8] is reported as 100 % of control.

`Cc1ccc(S(=O)(=O)N/N=C/c2ccc(O)c(S(=O)(=O)O)c2)cc1` was tested, and the T/C (dose: 12.5 mg/kg/injection, schedule: Q01DX009 (ip), vehicle: water) was 97 % of control, the T/C (dose: 25.0 mg/kg/injection, schedule: Q01DX009 (ip), vehicle: water) was 101 % of control and the T/C (dose: 50.0 mg/kg/injection, schedule: Q01DX009 (ip), vehicle: water) was 101 % of control. For the same compound, the T/C (dose: 100.0 mg/kg/injection, schedule: Q01DX009 (ip), vehicle: water) was 110 % of control and the T/C (dose: 200.0 mg/kg/injection, schedule: Q01DX009 (ip), vehicle: water) was 99 % of control.

For `CC(C)NCC(O)c1ccc(NS(C)(=O)=O)cc1` (stereo not given), the T/C (dose: 50.0 mg/kg/injection, schedule: Q01DX005 (ip), vehicle: saline) was 108 % of control, the T/C (dose: 100.0 mg/kg/injection, schedule: Q01DX005 (ip), vehicle: saline) was 100 % of control and the T/C (dose: 200.0 mg/kg/injection, schedule: Q01DX005 (ip), vehicle: saline) was 104 % of control.

`C=Cn1c([N+](=O)[O-])cnc1/C=C/c1ccc(C(=O)N(CC)CC)cc1` was tested, and the T/C [1] was 99 % of control, the T/C [2] was 100 % of control and the T/C [3] was 100 % of control.

In the case of `Nc1nnn(/N=C\c2ccccc2)n1`, the T/C [10] is reported as 92 % of control and the T/C [11] is reported as 92 % of control.

`CC(C)(F)c1nc2cc3ccccc3cc2[nH]c1=O` was tested, and the T/C (dose: 100.0 mg/kg/injection, schedule: Q01DX001 (ip), vehicle: saline with Tween-80) was 98 % of control and the T/C (dose: 200.0 mg/kg/injection, schedule: Q01DX001 (ip), vehicle: saline with Tween-80) was 90 % of control.

In the case of `COc1ccc2c(c1)c(OC)c(CC(O)C(C)(C)O)c(=O)n2C` (stereo not given), the T/C (dose: 110.0 mg/kg/injection, schedule: Q01DX001 (ip), vehicle: Klucel (hydroxypropylcellulose) (HPC)) is reported as 96 % of control, the T/C (dose: 220.0 mg/kg/injection, schedule: Q01DX001 (ip), vehicle: Klucel (hydroxypropylcellulose) (HPC)) is reported as 106 % of control and the T/C (dose: 440.0 mg/kg/injection, schedule: Q01DX001 (ip), vehicle: Klucel (hydroxypropylcellulose) (HPC)) is reported as 110 % of control.

For `O/N=C1/CCC/C(=N/O)C1`, the T/C (dose: 50.0 mg/kg/injection, schedule: Q01DX005 (ip), vehicle: saline with Tween-80) was 100 % of control, the T/C (dose: 100.0 mg/kg/injection, schedule: Q01DX005 (ip), vehicle: saline with Tween-80) was 98 % of control and the T/C (dose: 200.0 mg/kg/injection, schedule: Q01DX005 (ip), vehicle: saline with Tween-80) was 107 % of control.

`CC1C(c2ccccc2)OCCN1C(N)=S` (stereo not given) was tested, and the T/C (dose: 50.0 mg/kg/injection, schedule: Q01DX009 (ip), vehicle: Klucel (hydroxypropylcellulose) (HPC)) was 108 % of control, the T/C (dose: 100.0 mg/kg/injection, schedule: Q01DX009 (ip), vehicle: Klucel (hydroxypropylcellulose) (HPC)) was 101 % of control and the T/C (dose: 200.0 mg/kg/injection, schedule: Q01DX009 (ip), vehicle: Klucel (hydroxypropylcellulose) (HPC)) was 101 % of control.

In the case of `O=C(Nc1ccccc1)OCc1c(COC(=O)Nc2ccccc2)c(-c2ccc(Cl)c(Cl)c2)n2c1CCC2`, the T/C (dose: 12.5 mg/kg/injection, schedule: Q01DX005 (ip), vehicle: distilled water + Tween-80) is reported as 122 % of control, the T/C (dose: 100.0 mg/kg/injection, schedule: Q01DX005 (ip), vehicle: distilled water + Tween-80) is reported as 155 % of control and the T/C (dose: 200.0 mg/kg/injection, schedule: Q01DX005 (ip), vehicle: distilled water + Tween-80) is reported as 160 % of control.

In the case of `CC1(C)O[C@H]2CC(=O)OC[C@]23[C@H]2CC[C@@]4(C)C(c5ccoc5)OC(=O)[C@H]5O[C@]54[C@]2(C)[C@@H](OC(=O)CCl)C[C@@H]13` (stereo not given in full), the T/C (dose: 0.5 mg/kg/injection, schedule: Q01DX009 (ip), vehicle: saline + alcohol) is reported as 113 % of control and the T/C (dose: 1.0 mg/kg/injection, schedule: Q01DX009 (ip), vehicle: saline + alcohol) is reported as 111 % of control.

`N#Cc1cc2cccn2c2c1cnn2-c1ccccc1` was tested, and the T/C [12] was 105 % of control, the T/C (dose: 120.0 mg/kg/injection, schedule: Q01DX005 (ip), vehicle: saline with Tween-80) was 98 % of control and the T/C (dose: 240.0 mg/kg/injection, schedule: Q01DX005 (ip), vehicle: saline with Tween-80) was 89 % of control.

For `C/C(=N/NC(=S)N1CCCCCC1)c1ncccn1`, the T/C [4] was 104 % of control and the T/C [5] was 115 % of control.

In the case of `Nc1cc(NC=O)ncn1`, the T/C [9] is reported as 102 % of control, the T/C [6] is reported as 105 % of control and the T/C [7] is reported as 102 % of control.

In the case of `CCCCNC(=O)CCC(NS(=O)(=O)c1ccc(C)cc1)C(=O)NCCCC` (stereo not given), the T/C [10] is reported as 93 % of control, the T/C [11] is reported as 100 % of control and the T/C (dose: 200.0 mg/kg/injection, schedule: Q01DX005 (ip), vehicle: Klucel (hydroxypropylcellulose) (HPC)) is reported as 93 % of control.

`COc1ccc(C(c2c(O)c3ccccc3oc2=O)c2c(O)c3ccccc3oc2=O)cc1` was tested, and the T/C (dose: 15.0 mg/kg/injection, schedule: Q01DX005 (ip), vehicle: saline with Tween-80) was 98 % of control, the T/C (dose: 30.0 mg/kg/injection, schedule: Q01DX005 (ip), vehicle: saline with Tween-80) was 98 % of control and the T/C [12] was 100 % of control and 98 % of control.
